Consider two compounds from patent publication US11690804B2, “Targeted delivery of therapeutic agents to human adipocytes” (AptamiR Therapeutics, Inc., priority 2018, dated 2023).

Square brackets hold non-standard residues; d marks the D form. Peptide text beside a SMILES is read from it. dTrp(2-Me) = Cc1[nH]c2ccccc2c1C[C@@H](N)C(=O)O

The subject of assay [1] is MKR insulin-resistant mice. The note with it: cited from earlier work.
Assay [2] concerns human subcutaneous adipocytes. Put plainly: Transport of green fluorescent Hexarelin into primary cultures of human subcutaneous adipocytes (fluorescence microscopy). The assay is classed as cell-based. The conditions noted are these: green fluorescent probe, primary culture. From the text:
In vitro validation of HexamiRs targeted delivery of functional miRNAs: The ability of the HexamiRs to target and deliver ss-miRNA analogs to adipocytes will evaluated in a model of primary cultures of human subcutaneous adipocytes. The first experimental step was to confirm that Hexarelin is efficiently transported into human mature adipocytes, using an in vitro protocol of primary cultures of human subcutaneous adipocytes. To test this, hexarelin labeled with a green fluorescent probe was incubated with cultured adipocytes.

Assay [3] deals with human subcutaneous adipocytes. In words: Transport of green fluorescent labeled fatty acids into primary cultures of human subcutaneous adipocytes (fluorescence microscopy). The assay is classed as cell-based. The conditions noted are these: green fluorescent probe, primary culture. As for the experimental part:
In vitro validation of AdipomiRs targeted delivery of functional miRNAs: The ability of the AdipomiRs to target and deliver ss-miRNA analogs to adipocytes was evaluated in a model of primary cultures of human subcutaneous adipocytes. The first experimental step was to confirm that fatty acids are efficiently transported into human mature adipocytes, using the inventor's in vitro protocol of primary cultures of human subcutaneous adipocytes. To test this, fatty acids such as palmitic and […] acids were labeled with a green fluorescent probe and incubated with cultured adipocytes.

As for `Cc1[nH]c2ccccc2c1C[C@@H](NC(=O)[C@@H](N)Cc1cnc[nH]1)C(=O)N[C@@H](C)C(=O)N[C@@H](Cc1c[nH]c2ccccc12)C(=O)N[C@H](Cc1ccccc1)C(=O)N[C@@H](CCCCN)C(N)=O` [Hexarelin, His-D-2-Me-Trp-Ala-Trp-D-Phe-Lys-NH2] (H-H[dTrp(2-Me)]AW[dF]K-NH2), in assay [1], the “glucose and insulin intolerance” value was “significantly improved”; the “plasma and liver triglycerides” value was “decreased”. Moreover, in assay [2], the “transport of labeled hexarelin into the cytoplasm of human adipocytes” value is given as “very efficiently transported”.

`CCCCCCCCCCCCCCCC(=O)O` [palmitic acid, Palmitic Acid]: in assay [3], the “transport of labeled fatty acids by human adipocytes” value is listed as “very efficiently transported”.
